Here are results for two substances from patent US9675664B2, “Compositions, formulations and methods of treating preeclampsia-type disorders of pregnancy” (Women & Infants' Hospital of Rhode Island, priority 2009, dated 2017).

For data set [1] the following is noted: endogenous TTR; cited from earlier work.
In data set [2] the test system is endothelial cells (EC) and trophoblasts (HTR) crosstalk. Kind of data set: In vitro endothelial cell-trophoblast co-culture tube (vacuole) formation assay on matrigel with pregnancy serum. It is filed as cell-based, human. Conditions: for rescue of mild PE serum induced disrupted EC-HTR8 crosstalk (tube assay): mild preeclampsia serum (mPE), TTR preincubated at 0.1, 1.0, 10 μg/ml of serum; for rescue of severe PE serum induced disrupted EC-HTR8 crosstalk (tube assay): severe preeclampsia serum (sPE), TTR preincubated at 0.1, 1.0, 10 microgram/ml of serum. The text has this: The in vitro assay described in this example is based on the premise that during normal pregnancy, fetal derived trophoblasts called the “invasive cytotrophoblasts” invade the maternal decidua and the endothelial cell lined spiral arteries. This phenomenon can be restructured using serum from pregnancy as physiological milieu and culturing human umbilical vein endothelial cells and trophoblasts on basement membrane such as matrigel. […] For additional information see U.S. Provisional Patent Application No. 61/063,491 filed Feb. 4, 2008 and/or Kalkunte, In Vitro and In Vivo Evidence for Lack of Vascular Remodeling by Third Trimester Trophoblasts, Placenta 29: 871-78 (2008).
Recombinantly produced TTR (detected by SDS-PAGE electrophoresis and purity 96%) was obtained from AbD Serotec, Raleigh, N.C. 27604, USA. Recombinant TTR obtained in lyophilized form was reconstituted with sterile phosphate-saline buffer to obtain a final concentration of 1 mg/ml and maintained at >pH 7.0. The solutions were stored as aliquots frozen at −80° C. until use. Thirty minutes prior to experimentation, the aliquots of TTR were thawed, then mixed with serum and incubated at 37° C. for 30 minutes.
The in vitro method further includes incubating a co-culture of human endothelial cells and human trophoblast cells in the presence of serum or plasma obtained from a pregnant person for a period of time sufficient to permit vacuolization (also referred to as “capillary formation” and “tube formation” in FIGS. 2-4), and after incubation determining whether substantial vacuolization in the co-culture has occurred by quantification as described in Example 3.
During pregnancy, angiogenesis is characterized by spiral artery remodeling for which trophoblast invasion into these maternal blood vessels is a prerequisite. The data of FIG. 2 show an in vitro model of interaction of trophoblasts and endothelial cells that mimics spiral artery remodeling. Specifically, 2.5×10^4 endothelial cells labeled red and 2.5×10^4 trophoblasts, labeled green, were co-cultured on matrigel coated plates and stimulated with either NPS (normal pregnancy serum) or severe PES (Preeclampsia Serum) as described above. In the absence of exogenous TTR, serum from severe (FIG. 2 Panel B #5 and C #9) preeclampsia patients blocks the “cross-talk” between endothelial-trophoblast cells, causing obvious differences in architecture as compared to the same cells stimulated under the same conditions with NPS serum (sample L1045; FIG. 2 Panel A, #1).
Briefly, 2.5×10^4 endothelial cells labeled red and 2.5×10^4 trophoblasts, each from different trimesters labeled green (FIG. 2), were co-cultured on matrigel coated plates and stimulated with either NPS or mild PES as described above. […] The number of vacuoles (or tubes) formed per sample were counted and represented in the graph (FIG. 4, mPE with and without TTR). […] Statistical significance of experimental differences was assessed using Student's paired t-test. […]
The in vitro studies conducted in Example 2 were quantified by counting the number of tube like structures termed as “vacuole” under fluorescence microscope (Nikon Eclipse TS 100 coupled with CCD camera) in four different fields at 4× magnification. […]

A further data set relates to Pregnant IL-10−/− mice. As to the kind of experiment: In vivo rescue of PE serum induced preeclampsia-like symptoms in pregnant IL-10-/- mice. The procedure: Recombinantly produced TTR (detected by SDS-PAGE electrophoresis and purity 96%) was obtained from AbD Serotec, Raleigh, N.C. 27604, USA. Recombinant TTR obtained in lyophilized form was reconstituted with sterile phosphate-saline buffer to obtain a final concentration of 1 mg/ml and maintained at >pH 7.0. The solutions were stored as aliquots and frozen at −80° C. until use. Thirty minutes prior to experimentation, the aliquots of TTR were thawed, then mixed with 100 μl of PE serum samples. Pregnant IL-10^−/− mice (C57BL/6, Jackson Labs, USA) were then injected intraperitoneally on gestational day (g.d.) 10 at a TTR dose of 20 microgram/mouse. The gestational period in mice is 20 days. Similarly, 100 μl PE serum or normal pregnancy serum was administered to different set of animals as control. On g.d.16/17, urine and serum samples were collected from each mouse, and blood pressure measurements were taken. Blood pressure was taken by an established tail-cuff method which utilizes a programmed sphygmomanometer. The animals adapted for 5 min using a warming test chamber (IITC Life Science Inc, Woodland Hills, Calif.) at controlled temperature (35° C.). The measurements were carried out on day 17 of pregnancy using DigiMed blood pressure analyzer, (MicroMed, Louisville, Ky., 40222-4683). Each measurement of blood pressure is an average of three readings at 1 min intervals from a number of animals (˜3-5 each). Systolic blood pressure was compared among non-pregnant and pregnant mice. All animals were age matched. Data was analyzed using Digi-Med® System Integrator™ Model 400 (DMSI-400).
Total urinary albumen was measures using Albumin (mouse) ELISA kit (ALPCO Diagnostics, Salem, N.H.) and urinary creatinine was measured using Metra Creatinine Kit (Quidel Corporation, San Diego, Calif.). Protinuria as represented as a ration of urinary albumin to creatinine (expressed as μg/mg). (Baseline values seen in mice range from 100-400 μg/mg.)
On g.d. 17 the mice were euthanized, the uterine horns were extracted, photographed and pregnancy outcomes were recorded. […] 10 in IL10^−/− mice. The effects in response to only one administration of serum (100 μl) were evaluated on g.d. 17.

The mark [3] stands for this setting: sPE serum 100 μl i.p. on g.d. 10 with co-administered TTR 20 microgram/mouse, evaluated g.d. 17.

Consider transthyretin [endogenous TTR], for which the half life entry in data set [1] was “approximately 2 days”.
With transthyretin [recombinant TTR], in data set [2], the “rescue of mild PE serum induced disrupted EC-HTR8 crosstalk (tube assay)” value is “substantially rescues” and the “rescue of severe PE serum induced disrupted EC-HTR8 crosstalk (tube assay)” value was “substantially rescues”. Besides, in data set [2] (listed as Recombinant TTR), the “rescue of mild PE serum induced disrupted EC-HTR8 crosstalk (tube assay)” value is reported as “rescues mPE serum induced disruption” and the “rescue of severe PE serum induced disrupted EC-HTR8 crosstalk (tube assay)” value was “rescues sPE serum induced disruption”. The “effect on NPS mediated tube formation” value in data set [2] (normal pregnancy serum (NPS), TTR 0.1, 1.0, 10 microgram/ml of serum) is “no significant effect”. In addition, the “TTR levels in mouse serum (SELDI-TOF relative intensity)” value with Pregnant IL-10−/− mice (reduction induced by severe preeclampsia serum, FIG. 6) is recorded as “rescued”. Moreover, in the data set on Pregnant IL-10−/− mice (setting [3]), the “intrauterine growth restriction (fetal weight)” value was “rescues sPE serum induced anomalies” and the “systolic blood pressure (hypertension)” value is “rescues sPE serum induced anomalies”. Also, the “proteinuria (urinary albumin to creatinine ratio)” value in the data set with Pregnant IL-10−/− mice (sPE serum 100 μl i.p. on g.d. 10 with co-administered TTR 20 microgram/mouse, urine g.d. 16/17) is listed as “rescues sPE serum induced anomalies”.
